In patent US4093796A, “Antibiotic derivatives of polyene macrolide group and method of obtaining the same” (Politechnika Gdanska, priority 1971, dated 1978):
Values after ≈ are worked out from the molar mass of the structure shown.

Assays:
[1] = tested on: Candida albicans; assay: antimicrobial activity in solid nutrient medium (serial dilution), Candida albicans; format: cell-based; conditions: solid Sabouraud medium, 36° C, 24 hours
Description: (§1) (a) determination of the antimicrobial activity of antibiotics and their derivatives in solid nutrient medium-- table 1
(§2) The antimicrobial activity in solid nutrient medium has been estimated with the aid of the serial dilution method as follows: 1 mg of antibiotic was dissolved in 1 ml of dimethylsulphoxide and diluted with 9 ml of sterile water. Serial dilutions in water had been performed and the minimum concentration inhibiting the growth of standard strains of Candida albicans and Saccahromyces cerevisiae estimated: 0.5 ml of the antibiotic solution was mixed in a Petri dish 10 cm in diameter with 9.5 ml of Sabouraud medium having a temperature of about 60° C. After mixing, solidifying the nutrient agar and inoculating the test microorganism on the surface, they were incubated at 36° C for 24 hours. The minimum inhibitory concentration was stated on the basis of observed absence of microorganism growth.

[2] = tested on: Saccahromyces cerevisiae; assay: antimicrobial activity in solid nutrient medium (serial dilution), Saccharomyces cerevisiae; format: cell-based; conditions: solid Sabouraud medium, 36° C, 24 hours
Description: as §1, §2

[3] = tested on: Candida albicans; assay: inhibition of pathogenic strains isolated from contaminated human members, Candida albicans; format: cell-based; conditions: 12 strains studied
Description: (§3) Studies were also conducted on the activity of the glucose derivative of nystatin, as compared with nystatin, in relation to a series of pathogenic strains of Candida and Geotrichum isolated from contaminated human members.

[4] = tested on: Candida sp.; assay: inhibition of pathogenic strains isolated from contaminated human members, Candida sp.; format: cell-based; conditions: 8 strains studied
Description: as §3

[5] = tested on: Geotrichum sp.; assay: inhibition of pathogenic strains isolated from contaminated human members, Geotrichum sp.; format: cell-based; conditions: 12 strains studied
Description: as §3

[6] = tested on: tested microorganisms; assay: antimicrobial activity in liquid nutrient medium (serial dilution, turbidity); format: cell-based
Description: (b) determination of the antimicrobial activity of antibiotics and their derivatives in liquid nutrient medium-- table 2.
The antimicrobial activity of antibiotics and their derivatives in liquid nutrient medium has been determined by making serial dilutions of antibiotics in the manner described above and by mixing of 0.5 ml of antibiotic solution with 4.5 ml of medium inoculated with tested microorganisms and prepared after Sabouraud without agar and with the addition of tarchocilin in the amount of 25 mg per 1 l. Solutions were allowed to stand for 48 hours at the temperature of 32° C.
Minimum concentration that inhibits the microorganisms growth has been determined on the basis of turbidity determined by extinction growth at […]; results are compared in table 2.

[7] = Candida albicans after 24 hrs, 3.12 mcg/ml
[8] = Candida albicans after 24 hrs, 6.25 mcg/ml
[9] = Candida albicans after 24 hrs, 12.5 mcg/ml
[10] = Candida albicans after 24 hrs, 25.0 mcg/ml
[11] = Candida albicans after 24 hrs, 50.0 mcg/ml
[12] = Candida albicans after 48 hrs, 3.12 mcg/ml
[13] = Candida albicans after 48 hrs, 6.25 mcg/ml
[14] = Candida albicans after 48 hrs, 12.5 mcg/ml
[15] = Candida albicans after 48 hrs, 25.0 mcg/ml
[16] = Candida albicans after 48 hrs, 50.0 mcg/ml
[17] = Candida sp. after 24 hrs, 3.12 mcg/ml
[18] = Candida sp. after 24 hrs, 6.25 mcg/ml
[19] = Candida sp. after 24 hrs, 12.5 mcg/ml
[20] = Candida sp. after 24 hrs, 25.0 mcg/ml
[21] = Candida sp. after 24 hrs, 50.0 mcg/ml
[22] = Candida sp. after 48 hrs, 3.12 mcg/ml
[23] = Candida sp. after 48 hrs, 6.25 mcg/ml
[24] = Candida sp. after 48 hrs, 12.5 mcg/ml
[25] = Candida sp. after 48 hrs, 25.0 mcg/ml
[26] = Candida sp. after 48 hrs, 50.0 mcg/ml
[27] = Geotrichum sp. after 24 hrs, 3.12 mcg/ml
[28] = Geotrichum sp. after 24 hrs, 6.25 mcg/ml
[29] = Geotrichum sp. after 24 hrs, 12.5 mcg/ml
[30] = Geotrichum sp. after 24 hrs, 25.0 mcg/ml
[31] = Geotrichum sp. after 24 hrs, 50.0 mcg/ml
[32] = Geotrichum sp. after 48 hrs, 3.12 mcg/ml
[33] = Geotrichum sp. after 48 hrs, 6.25 mcg/ml
[34] = Geotrichum sp. after 48 hrs, 12.5 mcg/ml
[35] = Geotrichum sp. after 48 hrs, 25.0 mcg/ml
[36] = Geotrichum sp. after 48 hrs, 50.0 mcg/ml
[37] = liquid medium after Sabouraud without agar, 48 hours, 32° C, extinction at 660 mm

## C[C@@H]1[C@H](O)[C@@H](C)/C=C/C=C/CC/C=C/C=C/C=C/C=C/[C@H](O[C@@H]2O[C@H](C)[C@@H](O)[C@H](NC3O[C@H](CO)[C@@H](O)[C@H](O)[C@H]3O)[C@@H]2O)C[C@@H]2O[C@](O)(C[C@@H](O)[C@H](O)CC[C@@H](O)C[C@@H](O)C[C@@H](O)CC(=O)O[C@H]1C)C[C@H](O)[C@H]2C(=O)O (stereo partly drawn) [glucose derivative of nystatin]
[1]
  Minimum inhibitory concentration against Candida albicans: 2 µg/mL (≈ 1.84 µM)
[2]
  Minimum inhibitory concentration against cerevisiae: 2 µg/mL (≈ 1.84 µM)
[3]; [7]
  Number of strains the growth of which has been inhibited: 1 strains
[3]; [8]
  Number of strains the growth of which has been inhibited: 11 strains
[3]; [9]
  Number of strains the growth of which has been inhibited: 0 strains
[3]; [10]
  Number of strains the growth of which has been inhibited: 0 strains
[3]; [11]
  Number of strains the growth of which has been inhibited: 0 strains
[3]; [12]
  Number of strains the growth of which has been inhibited: 0 strains
[3]; [13]
  Number of strains the growth of which has been inhibited: 0 strains
[3]; [14]
  Number of strains the growth of which has been inhibited: 12 strains
[3]; [15]
  Number of strains the growth of which has been inhibited: 0 strains
[3]; [16]
  Number of strains the growth of which has been inhibited: 0 strains
[4]; [17]
  Number of strains the growth of which has been inhibited: 2 strains
[4]; [18]
  Number of strains the growth of which has been inhibited: 5 strains
[4]; [19]
  Number of strains the growth of which has been inhibited: 0 strains
[4]; [20]
  Number of strains the growth of which has been inhibited: 1 strains
[4]; [21]
  Number of strains the growth of which has been inhibited: 0 strains
[4]; [22]
  Number of strains the growth of which has been inhibited: 0 strains
[4]; [23]
  Number of strains the growth of which has been inhibited: 2 strains
[4]; [24]
  Number of strains the growth of which has been inhibited: 3 strains
[4]; [25]
  Number of strains the growth of which has been inhibited: 2 strains
[4]; [26]
  Number of strains the growth of which has been inhibited: 1 strains
[5]; [27]
  Number of strains the growth of which has been inhibited: 0 strains
[5]; [28]
  Number of strains the growth of which has been inhibited: 5 strains
[5]; [29]
  Number of strains the growth of which has been inhibited: 7 strains
[5]; [30]
  Number of strains the growth of which has been inhibited: 0 strains
[5]; [31]
  Number of strains the growth of which has been inhibited: 0 strains
[5]; [32]
  Number of strains the growth of which has been inhibited: 0 strains
[5]; [33]
  Number of strains the growth of which has been inhibited: 0 strains
[5]; [34]
  Number of strains the growth of which has been inhibited: 9 strains
[5]; [35]
  Number of strains the growth of which has been inhibited: 3 strains
[5]; [36]
  Number of strains the growth of which has been inhibited: 0 strains

## CC1C=CC=CC=CC=CC=CC=CC=CC(OC2OC(C)C(O)C(N)C2O)CC2OC(O)(CC(O)CC(O)C(O)CCC(O)CC(O)CC(=O)OC(C)C(C)C1O)CC(O)C2C(=O)O (stereo not drawn) [amphotericin B]
[6]; 48 h
  MIC: 0.05 µg/mL (≈ 0.0541 µM)

## CCC[C@@H]1C/C=C/C=C/C=C/C=C/[C@H](O[C@@H]2O[C@H](C)[C@@H](O)[C@H](N)[C@@H]2O)C[C@@H]2O[C@](O)(C[C@@H](O)CCCC(=O)C[C@@H](O)[C@H](CC)C(=O)O1)C[C@H](O)[C@H]2C(=O)O [rimocidin]
[6]; [37]
  MIC: 2.5 µg/mL (≈ 3.26 µM)

## C[C@@H]1[C@H](O)[C@@H](C)/C=C/C=C/C=C/C=C/C=C/C=C/C=C/[C@H](O[C@@H]2O[C@H](C)[C@@H](O)[C@H](N)[C@@H]2O)C[C@@H]2O[C@](O)(C[C@@H](O)[C@H](O)CC[C@@H](O)CC(=O)C[C@@H](O)CC(=O)O[C@H]1C)C[C@H](O)[C@H]2C(=O)O [mycoheptin]
[6]; [37]
  MIC: 2.5 µg/mL (≈ 2.71 µM)

## COc1cc2c(c3oc(-c4ccccc4)cc(=O)c13)C=CC(C)(C)O2 [candidin]
[6]; 48 h
  MIC: 0.2 µg/mL (≈ 0.598 µM)

## C[C@@H]1[C@H](O)[C@@H](C)/C=C/C=C/CC/C=C/C=C/C=C/C=C/[C@H](O[C@@H]2O[C@H](C)[C@@H](O)[C@H](NC3O[C@H](CO)[C@@H](O)[C@H](O)[C@H]3O)[C@@H]2O)C[C@@H]2O[C@](O)(C[C@@H](O)[C@H](O)CC[C@@H](O)C[C@@H](O)C[C@@H](O)CC(=O)O[C@H]1C)C[C@H](O)[C@H]2C(=O)[O-].[Na+] (stereo partly drawn)
other
  solubility / dispersion in water: form true solutions free of colloids

## candicidin
[6]; [37]
  MIC: 0.001 µg/mL

## C[C@@H]1[C@H](O)[C@@H](C)/C=C/C=C/CC/C=C/C=C/C=C/C=C/C(O[C@H]2O[C@H](C)[C@@H](O)[C@H](N)[C@@H]2O)CC2O[C@](O)(CC(O)C(O)CCC(O)CC(O)CC(O)CC(=O)O[C@H]1C)CC(O)C2C(=O)O (stereo partly drawn) [nystatin]
[1]
  Minimum inhibitory concentration against Candida albicans: 2 µg/mL (≈ 2.16 µM)
[2]
  Minimum inhibitory concentration against cerevisiae: 2 µg/mL (≈ 2.16 µM)
[3]; Candida albicans after 24 hrs, 1.56 mcg/ml
  Number of strains the growth of which has been inhibited: 1 strains
[3]; [7]
  Number of strains the growth of which has been inhibited: 11 strains
[3]; [8]
  Number of strains the growth of which has been inhibited: 0 strains
[3]; [9]
  Number of strains the growth of which has been inhibited: 0 strains
[3]; [10]
  Number of strains the growth of which has been inhibited: 0 strains
[3]; [11]
  Number of strains the growth of which has been inhibited: 0 strains
[3]; Candida albicans after 48 hrs, 1.56 mcg/ml
  Number of strains the growth of which has been inhibited: 0 strains
[3]; [12]
  Number of strains the growth of which has been inhibited: 2 strains
[3]; [13]
  Number of strains the growth of which has been inhibited: 10 strains
[3]; [14]
  Number of strains the growth of which has been inhibited: 0 strains
[3]; [15]
  Number of strains the growth of which has been inhibited: 0 strains
[3]; [16]
  Number of strains the growth of which has been inhibited: 0 strains
[4]; Candida sp. after 24 hrs, 1.56 mcg/ml
  Number of strains the growth of which has been inhibited: 2 strains
[4]; [17]
  Number of strains the growth of which has been inhibited: 3 strains
[4]; [18]
  Number of strains the growth of which has been inhibited: 1 strains
[4]; [19]
  Number of strains the growth of which has been inhibited: 2 strains
[4]; [20]
  Number of strains the growth of which has been inhibited: 0 strains
[4]; [21]
  Number of strains the growth of which has been inhibited: 0 strains
[4]; Candida sp. after 48 hrs, 1.56 mcg/ml
  Number of strains the growth of which has been inhibited: 0 strains
[4]; [22]
  Number of strains the growth of which has been inhibited: 3 strains
[4]; [23]
  Number of strains the growth of which has been inhibited: 1 strains
[4]; [24]
  Number of strains the growth of which has been inhibited: 3 strains
[4]; [25]
  Number of strains the growth of which has been inhibited: 1 strains
[4]; [26]
  Number of strains the growth of which has been inhibited: 0 strains
[5]; Geotrichum sp. after 24 hrs, 1.56 mcg/ml
  Number of strains the growth of which has been inhibited: 0 strains
[5]; [27]
  Number of strains the growth of which has been inhibited: 2 strains
[5]; [28]
  Number of strains the growth of which has been inhibited: 10 strains
[5]; [29]
  Number of strains the growth of which has been inhibited: 0 strains
[5]; [30]
  Number of strains the growth of which has been inhibited: 0 strains
[5]; [31]
  Number of strains the growth of which has been inhibited: 0 strains
[5]; Geotrichum sp. after 48 hrs, 1.56 mcg/ml
  Number of strains the growth of which has been inhibited: 0 strains
[5]; [32]
  Number of strains the growth of which has been inhibited: 0 strains
[5]; [33]
  Number of strains the growth of which has been inhibited: 5 strains
[5]; [34]
  Number of strains the growth of which has been inhibited: 7 strains
[5]; [35]
  Number of strains the growth of which has been inhibited: 0 strains
[5]; [36]
  Number of strains the growth of which has been inhibited: 0 strains

## C[C@@H]1[C@H](O)[C@@H](C)/C=C/C=C/CC/C=C/C=C/C=C/C=C/[C@H](O[C@@H]2O[C@H](C)[C@@H](O)[C@H](NC3O[C@H](CO)[C@@H](O[C@H]4O[C@H](CO)[C@@H](O)[C@H](O)[C@H]4O)[C@H](O)[C@H]3O)[C@@H]2O)C[C@@H]2O[C@](O)(C[C@@H](O)[C@H](O)CC[C@@H](O)C[C@@H](O)C[C@@H](O)CC(=O)O[C@H]1C)C[C@H](O)[C@H]2C(=O)[O-].[Na+] (stereo partly drawn)
other
  solubility / dispersion in water: form true solutions free of colloids

## trichomycin
[6]; [37]
  MIC: 0.001 µg/mL

## C[C@@H]1[C@H](O)[C@@H](C)/C=C/C=C/CC/C=C/C=C/C=C/C=C/[C@H](O[C@@H]2O[C@H](C)[C@@H](O)[C@H](NC3O[C@H](CO)[C@@H](O)[C@H](O)[C@H]3O)[C@@H]2O)C[C@@H]2O[C@](O)(C[C@@H](O)[C@H](O)CC[C@@H](O)C[C@@H](O)C[C@@H](O)CC(=O)O[C@H]1C)C[C@H](O)[C@H]2C(=O)O (stereo partly drawn) [NGL nystatin A1]
[6]; [37]
  MIC: 1.0 µg/mL (≈ 0.919 µM)

## CC1C=CC=CCCC=CC=CC=CC=CC(OC2OC(C)C(O)C(N)C2O)CC2OC(O)(CC(O)C(O)CCC(O)CC(O)CC(O)CC(=O)OC(C)C(C)C1O)CC(O)C2C(=O)O (stereo not drawn) [nystatin A1]
[6]; 48 h
  MIC: 0.5 µg/mL (≈ 0.54 µM)

## C[C@@H]1C/C=C/C=C/C=C/C=C/[C@H](O[C@@H]2O[C@H](C)[C@@H](O)[C@H](N)[C@@H]2O)C[C@@H]2O[C@](O)(C[C@@H](O)C[C@H]3O[C@@H]3/C=C/C(=O)O1)C[C@H](O)[C@H]2C(=O)O [pimaricin]
[6]; 48 h
  MIC: 2.5 µg/mL (≈ 3.76 µM)
